We go through one substance from patent US6921530B1, “Low dose IL-2 for potentiation of immunity” (Cornell Research Foundation, Inc., priority 1999, dated 2005).

“And” between values parts separate entries of the source, which are not always exact repeats. Equal entries are not always repeated.

For series [1], the system named is HIV p24-reactive T cells and NK cells. In words: Activation markers after 18 h whole blood activation with HIV p24 (flow cytometry). The class given is cell-based, human. The text has this:
FIG. 4 Expression of activation markers of CD4+ T cells and CD4− T cells after stimulation with HIV p24. Vertical axis=CD4, upper row horizontal axis=CD69, middle row=CD25, lower row=IFN-γ. A=subject #1, B=subject #2, C=subject #3, and D=subject #8. Numbers in right quadrants represent the % of CD4+ (upper) and CD4− (lower) T cells that reacted with the monoclonal antibody directed against the respective activation marker. The numbers in the column on the right represent the mean±SEM of the percentage positive cells from all 4 subjects. The values for control cultures, which received monoclonal antibodies reactive with accessory molecules alone (CD28 & CD49d) without HIV p24, were subtracted from the plots and percentages shown.
To identify activated cells, whole blood (1 ml) was cultured for 18 hours with the co-stimulatory antibodies anti-CD28 and anti-CD49d, and HIV p24 antigen (1 μg/ml, Research Diagnostics, Inc., Flanders N.J.) and cytomegalovirus antigen (1 μg/ml, Advanced Biotechnologies, Columbia, Md.). At the end of the incubaton the erythrocytes were lysed using FACSLysing Solution™ (9 ml). The cells were then either frozen at −70° C. in 2 ml RPMI 1640 medum with 10% Dimethyl Sulfoxide (Sigma, St. Louis, Mo.) or permeabilized with FACSPerm Solution™ (2 ml). Thereafter the cells were reacted with anti-CD3-PerCP, anti-CD4-PE, anti-CD8-PE, anti-CD56-PE, anti-CD69-FITC, anti-CD25-FITC, and anti-IFN-γ-FITC. All antibodies were from Becton Dickinson.
FIG. 5 Expression of interferon γ (IFN-γ) by CD-3+ and CD3− lymphocytes. A. Cells examined for size and granularity (left panel), CD3 expression (middle panel), and CD8 expression (right panel). B. Expression of IFN-γ and CD56 by CD3+ cells (gate R2), according to CD8− cells (gate R4, left panels), CD8 dim (gate R5, middle panels), and CD8+ (gate R6, right panels). Control cultures stimulated only with accessory antibodies (upper panels, HIV p24-stimulated cultures (lower panels). C. Expression of IFN-γ and CD56 by CD3− cells (gate R3), according to CD8− cells (gate R4, left panels), CD8dim (gate 5, middle panels) and CD8+ (gate R6, right panels). Control cultures stimulated only with accessory antibodies (upper panes, antiCD28, CD49d), HIV p-24-stimulated cultures (lower panels). Numbers in upper quadrants represent the percentages of CD56− and CD56+ cells that also reacted with anti-IFN-γ. To examine the activation of T cells and NK cells together, the cells were reacted with anti-CD3-PerCP, anti-CD8-PE, and anti-CD56-FITC, together with anti-IFN-γ-APC, all from Becton Dickinson.
To examine the HIV specific reactivity of CD4+ T cells, we performed an 18-hour activation of whole blood with HIV p24 followed by a 4-hour incubation with Brefeldin A to inhibit secretion. Subsequently, the cells were examined by flow cytometry after reaction with fluorochrome-conjugated monoclonal antibodies. Shown in FIG. 4 are the results from experiments performed with blood from the subjects who underwent a second treatment interruption when they had experienced the second CD8+ T lymphocytosis and had reached a stable concentration of plasma virus. Only CD3+ T cells were examined. […] In addition, subjects #1, 2 and 8 also expressed IFN-γ (mean 2.0%±1.2% SEM), while subject #3 had reactivity just above the limits of detection (0.2%). Also depicted in FIG. 4 are the results of the activation markers expressed by CD4− T cells, which are all CD8+, as determined by direct analysis for CD8 expression. There were also CD4− T cells stimulated to express CD69 (mean 3.2%±2.1% SEM) and CD25 (mean 1.9%±0.9% SEM). Moreover, CD4− T cells from subjects #1 and 2 also expressed IFN-γ, whereas the cells from subject 3 and 8 were at the level of detection (0.1%).
It was unexpected to find CD3+, CD4− cells capable of expressing surface markers of activation, and as well, producing detectable intracellular IFN-γ after HIV p24 stimulation. […]

A short description of series [2]: Tolerability of daily IL-2 doses in earlier studies of the applicant. Format: in vivo. As to the method: a) IL-2: The initial dose of IL-2 used in this study is based on our studies in HIV infection. Individuals with HIV were able to tolerate rIL-2 at 1.2×10^6 IU/m^2/day. […] Peak plasma levels are measured at two hours after initial IL-2 injection. Dosage adjustments of IL-2 are made under the following circumstances:
(1) IL-2 Dosage reduction: If a subject experiences WHO grade I systemic toxicity, and is unable to tolerate the daily dose of rIL-2 at 1.2×10^6 IU/m^2/day, the dose is reduced to 0.9×10^6 IU/m^2/day. In the event that toxicity continues, the dose is decreased to 0.75 IU/m^2/day, which is halfway between the previous dose and the dose we have previously determined to be ineffective (0.6 IU/m^2/d).
This dose is midway between the starting dose and the dose found to be toxic in 100% of patients (2.4×10^6 IU /m^2/d). In the event that toxicity occurs, the dose is adjusted to 1.4×10^6 IU 1m^2/day, and if there is still toxicity, the dose will be returned to 1.2×10^6 IU /m^2/day.

Another series has as its system HBV. As to conditions: cited from earlier work.
Setting [3] is: 4 subjects after second treatment interruption, mean ± SEM.
Setting [4] is: subject #1, HIV antigen activated.

Regarding Interleukin-2 [IL-2], in series [1] (setting [3]), the “CD4+ T cells stimulated by HIV p24 to express CD25” value is 15.5%±2.1% and 15.5%; the “CD4+ T cells stimulated by HIV p24 to express CD69” value was 4.3%±0.45; the “CD4− T cells stimulated by HIV p24 to express CD25” value is on record as 1.9%±0.9%; the “CD4− T cells stimulated by HIV p24 to express CD69” value is on record as 3.2%±2.1%. For the same substance, in series [1] (subject 3 and 8, at the level of detection), the “CD4− T cells expressing IFN-γ” value came to 0.1%. In addition, in series [1] (setting [4]), the “CD3-, CD8-dim cells that are CD56+ producing IFN-γ” value stood at 28% and the “CD3−, CD8− cells that express CD56 producing IFN-γ” value came to 33%. Further, in series [1] (subject #3, just above the limits of detection), the “CD4+ T cells stimulated by HIV p24 to express IFN-γ” value was determined as 0.2%. The “CD4+ T cells stimulated by HIV p24 to express IFN-γ” value in series [1] (subjects #1, 2 and 8, mean ± SEM) was 2.0%±1.2%. Besides, in series [2] (2.4×10^6 IU /m^2/d), the “patients in whom the dose was toxic” value amounted to 100%. For the same substance, the “dose previously determined to be ineffective” value in series [2] (in vivo) is 0.6 IU/m^2/d. Further, in series [2] (individuals with HIV), the tolerated daily dose is 1.2×10^6 IU/m^2/day. Besides, the “subjects with 50% reduction in HBV viral titer” value in the series with HBV (9×10^6 CU s.c. weekly for three weeks, then 1.8×10^6 CU twice a week for three months) is given as 4/7. The subjects with response in the series with HBV (doses up to 3.6×10^6 CU/day SC qd for eight weeks) is 5/30. Besides, the “subsequent decrease in ALT levels” value in the series on HBV (following the transient increase) was 30%. The “transient increase in ALT levels” value in the series on HBV (in vivo) is 30%.
